{"source": "patent US4582821A", "about": "“Inhibition of cyclic nucleotide independent protein kinases” (E. I. Du Pont de Nemours and Company, priority 1983, dated 1986)", "key": {"p130^fps [1]": {"target": "T1, p130^fps (UniProt P00530+P03323)", "T1 construct": "anti-gag serum and Staphylococcus protein A suspension (for FSV-transformed cells); viral gag-derived N-terminal portion (natural gag-fps fusion); expressed in transfected cells; immune complex with anti-gag serum and Staphylococcus protein A", "assay": "Immune complex phosphorylation by p130fps immunoprecipitates of FSV-transformed cells", "type": "biochemical, Fujinami sarcoma virus (FSV)", "conditions": "for Activity (cpm), FSV: anti-gag immunoprecipitates, no inhibitor 27036; for Activity (cpm), Control: extracts immunoprecipitated with normal serum, no inhibitor 2624", "protocol": "(§1) In this experiment, Boc-LeuCH2 Br was tested as an inhibitor of pp60^src and p130^fps, the tyrosine-specific protein kinases encoded by the transforming genes of RSV and Fujinami sarcoma virus, respectively.\n(§2) These viral gene products were partially purified by preparation of immune complexes substantially according to the technique described by Collett et al., Proc. Nat. Acad. Sci. USA 75:2021 (1978). In this procedure, immunoprecipitates are prepared by incubation of extracts of virus-transformed cells with tumor-bearing rabbit serum (TBR) and Staphylococcus protein A suspension (for RSV-transformed cells) or anti-gag serum and Staphylococcus protein A suspension (for FSV-transformed cells).\nAssay mixtures contained, in a final volume of 70 μL, 100 μg of immune complex protein, 20 mM Hepes, pH 7.4, and 1 mM MnCl2. Phosphorylation was initiated by addition of 1 μM (4 μCi) [γ-^32 P] ATP. After 10 minutes at about 23°, reactions were terminated by pipetting 20 μL aliquots of assay mixture onto 2×2 cm squares of Whatman 3 MM filter paper, which were immediately suspended in 10% TCA/10 mM sodium pyrophosphate. […] Controls for the immunoprecipitation procedure were prepared by immunoprecipitating transformed cell extracts with normal serum. Values in parentheses represent specific phosphorylation induced by virus-transformed cells.\n(§3) In a related experiment, the capacity of Boc-LeuCH2 Br to inhibit phosphorylation of casein by p130^fps was determined. These tests were conducted substantially as described above, except 1 mg/mL casein was added to assay mixtures as a substrate, and reactions were terminated by addition of 2.5 mM unlabeled ATP and immediate cooling to 0°. Phosphorylated casein was separated from immunoprecipitate suspensions by centrifugation at 3,000 xg for 3 minutes. The resulting pellets were resuspended in 70 μL of 10 mM Hepes, pH 7.5, and 20 μL aliquots were pipetted onto filter paper squares as previously described.\nThis experiment was conducted substantially according to the procedures described in Example 17, above. In Table 5, \"FSV\" refers to immunoprecipitates of FSV-transformed cell extracts prepared by addition of anti-gag serum; controls were extracts immunoprecipitated with normal serum."}, "p130^fps [2]": {"target": "T1, p130^fps", "assay": "Casein phosphorylation by p130fps immunoprecipitates", "type": "biochemical, Fujinami sarcoma virus (FSV)", "conditions": "for Casein Phosphorylation: 1 mg/mL casein", "protocol": "as §3, with “described. […]” for “described.”"}, "pp60^src": {"system": "pp60^src", "assay": "Immune complex phosphorylation by pp60src immunoprecipitates of RSV-transformed cells", "type": "biochemical, Rous sarcoma virus (RSV)", "conditions": "250 nmoles per mg protein", "protocol": "as §1, §2\nAssay mixtures contained, in a final volume of 70 μL, 100 μg of immune complex protein, 20 mM Hepes, pH 7.4, and 1 mM MnCl2. Phosphorylation was initiated by addition of 1 μM (4 μCi) [γ-^32 P] ATP. After 10 minutes at about 23°, reactions were terminated by pipetting 20 μL aliquots of assay mixture onto 2×2 cm squares of Whatman 3 MM filter paper, which were immediately suspended in 10% TCA/10 mM sodium pyrophosphate. Test mixtures contained 250 nmoles Boc-LeuCH2 Br per mg protein. Controls for the immunoprecipitation procedure were prepared by immunoprecipitating transformed cell extracts with normal serum. Values in parentheses represent specific phosphorylation induced by virus-transformed cells."}, "[3]": {"system": "erythroleukemia cell line K-562", "assay": "Tumor cell line growth inhibition, K-562", "type": "cell-based", "protocol": "In this series of experiments, the tumor cell growth inhibitory capacity of various peptide halomethyl ketones was tested against lymphoma cell lines YAC-1 and MOLT-4, and against an erythroleukemia cell line, K-562. The lymphoma cell line YAC-1 is described by Kiessling, et al., Eur. J. Immunol. 5:112 (1975), and MOLT-4 is described by Minowada, et al., J. Natl. Cancer Inst. 49:891 (1972) and Nilsson, et al., Int. J. Cancer 15:321 (1975). The erythroleukemia cell line K-562 is described by Lozzio, et al., Leuk. Res. 3:363 (1979). In these experiments, cells were grown on standard media as 10 mL suspension cultures. Initial cell density was 10^5 cells/mL. At day 0, test compounds were introduced in ethanol; control cultures received an equal volume of ethanol. Cells were counted at the times indicated."}}}
{"smiles": "CC(C)CC(NC(=O)OC(C)(C)C)C(=O)CBr", "note": "(centres unmarked) [Boc-LeuCH2 Br]", "values": [{"measurement": "% inhibition", "setting": "p130^fps [1]; 250 nmoles/mg protein", "value": 48, "unit": "%"}, {"measurement": "Activity (cpm), FSV", "setting": "p130^fps [1]; 250 nmoles/mg protein", "value": 13932, "unit": "cpm"}, {"measurement": "Activity (cpm), Control", "setting": "p130^fps [1]; 250 nmoles/mg protein", "value": 2370, "unit": "cpm"}, {"measurement": "% inhibition", "setting": "p130^fps [1]; 500 nmoles/mg protein", "value": 69, "unit": "%"}, {"measurement": "Activity (cpm), FSV", "setting": "p130^fps [1]; 500 nmoles/mg protein", "value": 8344, "unit": "cpm"}, {"measurement": "Activity (cpm), Control", "setting": "p130^fps [1]; 500 nmoles/mg protein", "value": 2180, "unit": "cpm"}, {"measurement": "Immune Complex Phosphorylation, specific phosphorylation (in parentheses)", "setting": "p130^fps [1]; p130fps + anti-gag serum, 250 nmoles per mg protein, no inhibitor 20104", "value": 6324, "unit": "cpm"}, {"measurement": "Immune Complex Phosphorylation", "setting": "p130^fps [1]; p130fps + anti-gag serum, 250 nmoles per mg protein, no inhibitor 29244", "value": 15222, "unit": "cpm"}, {"measurement": "Immune Complex Phosphorylation", "setting": "p130^fps [1]; p130fps + control serum, 250 nmoles per mg protein, no inhibitor 9140", "value": 8898, "unit": "cpm"}, {"measurement": "Immune Complex Phosphorylation", "setting": "p130^fps [1]; related experiment with 1 mg/mL casein, p130fps + anti-gag serum, no inhibitor 7663", "value": 1656, "unit": "cpm"}, {"measurement": "Immune Complex Phosphorylation", "setting": "p130^fps [1]; related experiment with 1 mg/mL casein, p130fps + control serum, no inhibitor 1184", "value": 1286, "unit": "cpm"}, {"measurement": "Casein Phosphorylation", "setting": "p130^fps [2]; p130fps + anti-gag serum, no inhibitor 4442", "value": 618, "unit": "cpm"}, {"measurement": "Casein Phosphorylation", "setting": "p130^fps [2]; p130fps + control serum, no inhibitor 326", "value": 226, "unit": "cpm"}, {"measurement": "Percent Inhibition", "setting": "p130^fps [2]; casein-phosphorylating activity of p130fps, concentration not given", "value": 63, "unit": "%"}, {"measurement": "Immune Complex Phosphorylation", "setting": "pp60^src; pp60 + control serum, no inhibitor 7872", "value": 7516, "unit": "cpm"}, {"measurement": "Immune Complex Phosphorylation, specific phosphorylation (in parentheses)", "setting": "pp60^src; pp60src + TBR serum, no inhibitor 5112", "value": 3202, "unit": "cpm"}, {"measurement": "Immune Complex Phosphorylation", "setting": "pp60^src; pp60src + TBR serum, no inhibitor 12984", "value": 10718, "unit": "cpm"}, {"measurement": "% Growth Relative to Control Cultures", "setting": "[3]; 0.4 μg/mL, day 3", "value": 70, "unit": "%"}, {"measurement": "% Growth Relative to Control Cultures", "setting": "[3]; 0.4 μg/mL, day 7", "value": 85, "unit": "%"}, {"measurement": "% Growth Relative to Control Cultures", "setting": "[3]; 2.0 μg/mL, day 1", "value": 53, "unit": "%"}, {"measurement": "% Growth Relative to Control Cultures", "setting": "[3]; 2.0 μg/mL, day 2", "value": 22, "unit": "%"}, {"measurement": "% Growth Relative to Control Cultures", "setting": "[3]; 2.0 μg/mL, day 3", "value": 19, "unit": "%"}, {"measurement": "% Growth Relative to Control Cultures", "setting": "[3]; 2.0 μg/mL, day 4", "value": 16, "unit": "%"}, {"measurement": "% Growth Relative to Control Cultures", "setting": "[3]; 2.0 μg/mL, day 7", "value": 69, "unit": "%"}, {"measurement": "% Growth Relative to Control Cultures", "setting": "[3]; 10. μg/mL, day 1", "value": 33, "unit": "%"}, {"measurement": "% Growth Relative to Control Cultures", "setting": "[3]; 10. μg/mL, day 2", "value": 22, "unit": "%"}, {"measurement": "% Growth Relative to Control Cultures", "setting": "[3]; 10. μg/mL, day 3", "value": 7, "unit": "%"}, {"measurement": "% Growth Relative to Control Cultures", "setting": "[3]; 10. μg/mL, day 4", "value": 17, "unit": "%"}, {"measurement": "% Growth Relative to Control Cultures", "setting": "[3]; 10. μg/mL, day 7", "value": 13, "unit": "%"}]}
